# Data published in patent US9399626B2, “2-thiopyrimidinones” (Pfizer Inc., priority 2011, dated 2016).
# Structures can show the parent of a compound that is named as a salt.
# Target: T1, MPO (purified from human polynuclear leukocytes) (Homo sapiens, UniProt P05164)
# T1 construct: purified from human polynuclear leukocytes; purchased Calbiochem/EMD Biosciences; host or cells: human polynuclear leukocytes (natural source)
# Test: MPO Amplex Red Activity Assay
# Type: biochemical
# Conditions: Table 1, 2 μM H2O2, pH 7.4
# Description: MPO Amplex Red Activity Assay.
# MPO peroxidase activity was measured by monitoring the formation of resorufin generated from the oxidation of Amplex Red (10-Acetyl-3,7-dihydroxyphenoxazine) (Invitrogen, Carlsbad, Calif.) by MPO (Gomes, Fernandes et al. 2005). Assay mixtures (100 μL total volume) contained 50 mM NaPi pH 7.4, 150 mM NaCl, 1 mM DTPA (diethylenetriaminepentaacetic acid), 2% DMSO, 2 μM H2O2, 30 μM Amplex Red and the reaction was initiated by the addition of […] (purified from human polynuclear leukocytes and purchased from Calbiochem/EMD Biosciences, Gibbstown, N.J.). All assays were performed in 96-well, half-area, black, nonbinding surface, polystyrene plates (Corning) and the production of resorufin (excitation 530 nm, emission 580 nm) was monitored every 20 sec on a Spectramax M2 Microplate Spectrophotometer (Molecular Devices, Palo Alto, Calif.) equipped with Softmax Pro software (Molecular Devices, Palo Alto, Calif.). Reactions to determine the background reaction rate consisted of all assay components and 4 μL of 500 unit/mL bovine catalase (Sigma) in 50 mM KPi pH 7.0. The background rate was subtracted from each reaction progress curve. All data was analyzed using non-linear regression analysis in Microsoft Excel and Kaleidagraph (Synergy Software).
# To determine inhibitor potency (kinact/KI) against MPO, the first 600 sec of the reaction progress curves were fit to equation 1, where Vo is the initial rate in RFU/sec and t is time in seconds, to obtain the first order rate constant for enzyme inactivation (kobs) at each inhibitor concentration.
# [formula] Equation 1 is a variation of the standard equation for slow binding inhibition where the steady state velocity (Vs) is set to zero. Each kobs value was corrected for auto-inactivation of the enzyme by subtracting the kobs value for the uninhibited reaction. The corrected kobs values were then plotted versus inhibitor concentration ([I]) and fit to equation 2
# [formula] where kinact is the maximal rate of inactivation and KI is the inhibitor concentration that yields half the rate of maximal inactivation (Copeland 2005).
# Table 1 and (1A) below provides the myeloperoxidase inhibitory activity for the Examples below in accordance with the above-described assay.
# T1 sequence (P05164 279-745 limits assumed): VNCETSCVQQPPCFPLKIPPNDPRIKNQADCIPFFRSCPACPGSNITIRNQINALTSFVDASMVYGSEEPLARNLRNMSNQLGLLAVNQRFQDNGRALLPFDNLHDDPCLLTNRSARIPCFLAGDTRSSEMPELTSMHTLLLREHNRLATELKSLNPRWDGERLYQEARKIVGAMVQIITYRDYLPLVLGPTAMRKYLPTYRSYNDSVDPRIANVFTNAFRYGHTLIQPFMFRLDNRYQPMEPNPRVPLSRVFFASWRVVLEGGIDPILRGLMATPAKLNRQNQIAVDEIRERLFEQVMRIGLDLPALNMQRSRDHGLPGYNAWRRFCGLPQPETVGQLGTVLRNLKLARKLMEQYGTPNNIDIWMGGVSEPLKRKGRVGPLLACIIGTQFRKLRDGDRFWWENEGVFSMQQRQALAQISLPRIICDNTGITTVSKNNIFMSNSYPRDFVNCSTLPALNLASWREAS
# T1 sequence (P05164 165-273 limits assumed): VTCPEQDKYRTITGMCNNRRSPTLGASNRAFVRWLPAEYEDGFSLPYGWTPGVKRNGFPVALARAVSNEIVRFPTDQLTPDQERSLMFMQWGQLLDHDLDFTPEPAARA
row,MPO kinact/Ki,SMILES
1,5500 1/s per M,"COCCn1c(-c2ccccc2OC(F)(F)F)cc(=O)[nH]c1=S [Example 118, 1-(2-methoxyethyl)-2-thioxo-6-[2-(trifluoromethoxy)phenyl]-2,3-dihydropyrimidin-4(1H)-one]"
2,6710 1/s per M,"COCCn1c(-c2ccc3ccccc3c2)cc(=O)[nH]c1=S [Example 276, 1-(2-methoxyethyl)-6-(2-naphthyl)-2-thioxo-2,3-dihydropyrimidin-4(1H)-one]"
3,3290 1/s per M,"NCCn1c(-c2ccccc2OCCO)cc(=O)[nH]c1=S [Example 53, 1-(2-aminoethyl)-6-[2-(2-hydroxyethoxy)phenyl]-2-thioxo-2,3-dihydropyrimidin-4(1H)-one hydrochloride]"
4,914 1/s per M,"COCCn1c(-c2cccc(S(C)(=O)=O)c2)cc(=O)[nH]c1=S [Example 109, 1-(2-methoxyethyl)-6-[3-(methylsulfonyl)phenyl]-2-thioxo-2,3-dihydropyrimidin-4(1H)-one]"
5,6010 1/s per M,"NCCn1c(-c2ccccc2-n2nccn2)cc(=O)[nH]c1=S [Example 144, 1-(2-aminoethyl)-2-thioxo-6-[2-(2H-1,2,3-triazol-2-yl)phenyl]-2,3-dihydropyrimidin-4(1H)-one hydrochloride]"
6,1070 1/s per M,"COCCn1c(-c2ccccc2CO)cc(=O)[nH]c1=S [Example 292, 6-[2-(hydroxymethyl)phenyl]-1-(2-methoxyethyl)-2-thioxo-2,3-dihydropyrimidin-4(1H)-one]"
7,4370 1/s per M,"COCCn1c(-c2ccccc2OC(C)C)cc(=O)[nH]c1=S [Example 328, 6-(2-isopropoxyphenyl)-1-(2-methoxyethyl)-2-thioxo-2,3-dihydropyrimidin-4(1H)-one]"
8,4140 1/s per M,"COCCn1c(-c2ccccc2-n2nccn2)cc(=O)[nH]c1=S [Example 101, 1-(2-methoxyethyl)-2-thioxo-6-[2-(2H-1,2,3-triazol-2-yl)phenyl]-2,3-dihydropyrimidin-4(1H)-one]"
9,2010 1/s per M,"COCCc1ccccc1-c1cc(=O)[nH]c(=S)n1CCO [Example 271, 1-(2-hydroxyethyl)-6-[2-(2-methoxyethyl)phenyl]-2-thioxo-2,3-dihydropyrimidin-4(1H)-one]"
10,1500 1/s per M,"COCCn1c(-c2ccc(O)cc2)cc(=O)[nH]c1=S [Example 286, 6-(4-hydroxyphenyl)-1-(2-methoxyethyl)-2-thioxo-2,3-dihydropyrimdin-4(1H)-one]"
11,4110 1/s per M,"COCCn1c(-c2c[nH]c3ncccc23)cc(=O)[nH]c1=S [Example 35, 1-(2-methoxyethyl)-6-(1H-pyrrolo[2,3-b]pyridin-3-yl)-2-thioxo-2,3-dihydropyrimidin-4(1H)-one]"
12,6370 1/s per M,"COCCn1c(-c2coc3ccccc23)cc(=O)[nH]c1=S [Example 305, 6-(1-benzofuran-3-yl)-1-(2-methoxyethyl)-2-thioxo-2,3-dihydropyrimidin-4(1H)-one]"

# Continued, compound first:
row,SMILES,MPO kinact/Ki
1,"COCCn1c(-c2ccc(OC)nc2OC)cc(=O)[nH]c1=S [Example 332, 6-(2,6-dimethoxypyridin-3-yl)-1-(2-methoxyethyl)-2-thioxo-2,3-dihydropyrimidin-4(1H)-one]",3270 1/s per M
2,"COCCn1c(-c2nc(C)ccc2OC)cc(=O)[nH]c1=S [Example 49, 1-(2-methoxyethyl)-6-(3-methoxy-6-methylpyridin-2-yl)-2-thioxo-2,3-dihydropyrimidin-4(1H)-one]",2230 1/s per M
3,"COc1cc(F)ccc1-c1cc(=O)[nH]c(=S)n1CC(N)=O [Example 56, 2-[6-(4-fluoro-2-methoxyphenyl)-4-oxo-2-thioxo-3,4-dihydropyrimidin-1(2H)-yl]acetamide]",4770 1/s per M
4,"COc1cc(OC)c(-c2cc(=O)[nH]c(=S)n2CCCN)cc1OC [Example 125, 1-(3-aminopropyl)-2-thioxo-6-(2,4,5-trimethoxyphenyl)-2,3-dihydropyrimidin-4(1H)-one hydrochloride]",10600 1/s per M
5,"COc1ccc(C)cc1-c1cc(=O)[nH]c(=S)n1CC(N)=O [Example 164, 2-[6-(2-methoxy-5-methylphenyl)-4-oxo-2-thioxo-3,4-dihydropyrimidin-1(2H)-yl]acetamide]",14900 1/s per M
6,"COCCn1c(-c2ccc3c(c2)OCCO3)cc(=O)[nH]c1=S [Example 326, 6-(2,3-dihydro-1,4-benzodioxin-6-yl)-1-(2-methoxyethyl)-2-thioxo-2,3-dihydropyrimidin-4(1H)-one]",7480 1/s per M
7,"COc1ccc(-c2cc(=O)[nH]c(=S)n2Cc2cccnc2)c(OC)c1 [Example 231, 6-(2,4-dimethoxyphenyl)-1-(pyridin-3-ylmethyl)-2-thioxo-2,3-dihydropyrimidin-4(1H)-one]",1910 1/s per M
8,"COc1ccc(-c2cc(=O)[nH]c(=S)n2CCCNCCO)c(OC)c1 [Example 245, 6-(2,4-dimethoxyphenyl)-1-{3-[(2-hydroxyethyl)amino]propyl}-2-thioxo-2,3-dihydropyrimidin-4(1H)-one]",1520 1/s per M
9,"COc1cc(OC)cc(-c2cc(=O)[nH]c(=S)n2CC(N)=O)c1 [Example 86, 2-[6-(3,5-dimethoxyphenyl)-4-oxo-2-thioxo-3,4-dihydropyrimidin-1(2H)-yl]acetamide]",3960 1/s per M
10,"COc1ccc(-c2cc(=O)[nH]c(=S)n2C[C@@H]2CCCN2)c(OC)c1 [Example 268, 6-(2,4-dimethoxyphenyl)-1-[(2S)-pyrrolidin-2-ylmethyl]-2-thioxo-2,3-dihydropyrimidin-4(1H)-one hydrochloride hydrochloride hydrochloride, hydrochloride hydrochloride …]",6640 1/s per M
11,"COc1cc(F)ccc1-c1cc(=O)[nH]c(=S)n1CCN [Example 25, 1-(2-aminoethyl)-6-(4-fluoro-2-methoxyphenyl)-2-thioxo-2,3-dihydropyrimidin-4(1H)-one hydrochloride]",9210 1/s per M
12,"COc1ccc(Cl)cc1-c1cc(=O)[nH]c(=S)n1C[C@H](O)CN [Example 114, 1-[(2R)-3-amino-2-hydroxypropyl]-6-(5-chloro-2-methoxyphenyl)-2-thioxo-2,3-dihydropyrimidin-4(1H)-one trifluoroacetate]",9770 1/s per M

# Same assay, conditions: Table 1A, 2 μM H2O2, pH 7.4
row,MPO kinact/Ki,SMILES
1,7370 1/s per M,"COc1ccc(OCCO)c(-c2cc(=O)[nH]c(=S)n2CCO)c1 [Example 379, 6-[2-(2-hydroxyethoxy)-5-methoxyphenyl]-1-(2-hydroxyethyl)-2-thioxo-2,3-dihydropyrimidin-4(1H)-one]"
2,6250 1/s per M,"COc1ccccc1-c1cc(=O)[nH]c(=S)n1CC(=O)NCCN [Example 372, N-(2-aminoethyl)-2-[6-(2-methoxyphenyl)-4-oxo-2-thioxo-3,4-dihydropyrimidin-1(2H)-yl]acetamide]"

# More lines, now with the values behind:
row,SMILES,MPO kinact/Ki
1,"COc1ccc(-c2cc(=O)[nH]c(=S)n2CCNC(=O)NC(=N)N)c(OC)c1 [Example 452, 1-carbamimidoyl-3-{2-[6-(2,4-dimethoxyphenyl)-4-oxo-2-thioxo-3,4-dihydropyrimidin-1(2H)-yl]ethyl}urea]",11600 1/s per M
2,"COc1cccc(-c2cc(=O)[nH]c(=S)n2CC(N)=O)c1OC [Example 416, 2-[6-(2,3-dimethoxyphenyl)-4-oxo-2-thioxo-3,4-dihydropyrimidin-1(2H)-yl]acetamide]",4480 1/s per M
